Test results published in patent US5132304A, “Benzothiazine derivatives and their applications as medicinal products or as synthesis intermediates for medicinal products” (Laboratorios Del Dr. Esteve, S. A., priority 1989, dated 1992).

System: carrageenan-induced oedema in Wistar rats
Experiment: Inhibition of carrageenan-induced oedema in Wistar rats 3 hours after oral administration
Format: in vivo
Conditions: p.o.; for Oedema inhibition: N=10, 3 hours after administration; for ED50: Rattus norvegicus, calculated from results 3 hours after oral administration, 2 hours after carrageenan
Protocol: (Inhibition of carrageenan-induced oedema)
The method followed was that described by Winter et al. (Proc. Soc. Exp. Biol. Med. […]; 111; 544-547).
Inhibition of carrageenan-induced oedema in Wistar rats 3 hours after administration of the product: […]

CCOC(=O)OC1=C(C(=O)N(C(=O)OCC)c2ccccn2)N(C)S(=O)(=O)c2ccccc21 [Example 1, N-ethoxycarbonyl-N-(2-pyridyl)-4-ethoxy-carbonyloxy-2-methyl-2H-1,2-benzothiazine-3-carboxamide 1,1-dioxide]
Oedema inhibition (2.5 mg/kg): 33.8% | Oedema inhibition (5 mg/kg): 54.3% | Oedema inhibition (10 mg/kg): 63.8% | Oedema inhibition (40 mg/kg): 65.5% | ED50: 5.6 mg/kg

CCCCC1C(=O)N(c2ccccc2)N(c2ccccc2)C1=O [Phenylbutazone, phenylbutazone, reference compound]
Oedema inhibition (12.5 mg/kg): 46.6% | Oedema inhibition (25 mg/kg): 52.1% | ED50: 19.6 mg/kg
